Results on ten molecules are retold here after PubChem BioAssay (NCI).

Test systems include SW-620 colon; SF-295 CNS; MDA-MB-231 breast; HL-60(TB) leukemia; BT-549 breast; SK-MEL-28 melanoma; PC-3 prostate; SK-MEL-5 melanoma.
What all share (test): growth of human tumour cells (NCI), 48 h

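Cultured in 96-well plates, cells were exposed to test compound for 48 hours across five concentrations. GI50 marks 50% less growth. Definition used: TGI = concentration required for complete inhibition of growth.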

For the molecule `Cn1cc(C2=C(c3ccccc3[N+](=O)[O-])C(=O)NC2=O)c2ccccc21`, the GI50 was 3.97 µM in the assay on SW-620 colon; 1.44 µM with SF-295 CNS; 4.72 µM in the assay on MDA-MB-231 breast; 2.11 µM in the assay on HL-60(TB) leukemia; 5.26 µM with BT-549 breast; 6.24 µM with SK-MEL-28 melanoma. In addition, the GI50 in the assay on PC-3 prostate was 1.65 µM; with SK-MEL-5 melanoma, 2.86 µM. For the same molecule, the TGI in the assay with SW-620 colon is above 20 µM; in the assay with SF-295 CNS, above 25 µM; with MDA-MB-231 breast, 19.6 µM; with HL-60(TB) leukemia it was 13.9 µM; in the assay on BT-549 breast it was above 20.2 µM; with SK-MEL-28 melanoma, 20.1 µM. The TGI with PC-3 prostate stood at 11.6 µM; with SK-MEL-5 melanoma, 8.06 µM.

Regarding `O=C1CC[C@H](N2C(=O)c3cccc4c(Cc5ccc(CN6CCOCC6)cc5)ccc2c34)C(=O)N1`, the GI50 in the assay with SW-620 colon was above 100 µM; in the assay on SF-295 CNS it was 19.3 µM; in the assay on MDA-MB-231 breast, 79.5 µM; with HL-60(TB) leukemia, 24.1 µM; in the assay with BT-549 breast it was 17.3 µM; in the assay on SK-MEL-28 melanoma, 75.1 µM. Further, the GI50 is 40.4 µM in the assay with PC-3 prostate and 7.32 µM in the assay with SK-MEL-5 melanoma. The TGI in the assay on SW-620 colon, in the assay with SF-295 CNS, in the assay on MDA-MB-231 breast, with HL-60(TB) leukemia, in the assay with BT-549 breast and in the assay with SK-MEL-28 melanoma was above 100 µM throughout. Further, the TGI is above 100 µM with PC-3 prostate and 26.4 µM in the assay on SK-MEL-5 melanoma.

For the molecule `COc1cc2nccc(Oc3ccc(NC(=O)NC4CC4)c(Cl)c3)c2cc1C(N)=O`, the GI50 in the assay on SW-620 colon was 97.5 µM; in the assay on SF-295 CNS, 23.4 µM; in the assay with MDA-MB-231 breast, 11.5 µM; in the assay on HL-60(TB) leukemia it was above 100 µM; with BT-549 breast, 5.17 µM; with SK-MEL-28 melanoma, 41.3 µM. Besides, the GI50 in the assay with PC-3 prostate was 42.5 µM; with SK-MEL-5 melanoma, 40 µM. The TGI was above 100 µM with SW-620 colon; above 85.7 µM with SF-295 CNS; 43.8 µM in the assay with MDA-MB-231 breast; above 100 µM with HL-60(TB) leukemia; 27.2 µM with BT-549 breast; above 100 µM in the assay with SK-MEL-28 melanoma. The TGI with PC-3 prostate and with SK-MEL-5 melanoma was above 100 µM throughout.

In the case of `COc1ccc(C(=O)Nc2ncc(Cc3cccc(Cl)c3)s2)cc1OC`, the GI50 with SW-620 colon was 0.0567 µM; with SF-295 CNS, 0.0607 µM; with MDA-MB-231 breast it was 1.77 µM; with HL-60(TB) leukemia it was 0.325 µM; in the assay on BT-549 breast it was 0.883 µM; in the assay on SK-MEL-28 melanoma, 0.119 µM. The GI50 was 1.5 µM with PC-3 prostate and 0.247 µM in the assay on SK-MEL-5 melanoma. Further, the TGI with SW-620 colon was above 100 µM; with SF-295 CNS it was 3.64 µM; in the assay on MDA-MB-231 breast, above 100 µM; in the assay on HL-60(TB) leukemia, above 71 µM; in the assay with BT-549 breast, above 100 µM; with SK-MEL-28 melanoma it was above 100 µM. Moreover, the TGI in the assay on PC-3 prostate is above 100 µM; in the assay on SK-MEL-5 melanoma it was 11.1 µM.

Regarding `C=C1CC2CCCC12C=O` (stereo unspecified), the TGI in the assay on SW-620 colon, in the assay on SF-295 CNS, in the assay on MDA-MB-231 breast, in the assay on HL-60(TB) leukemia, in the assay with BT-549 breast and with SK-MEL-28 melanoma was above 10 µM throughout. In addition, the TGI in the assay on PC-3 prostate and in the assay with SK-MEL-5 melanoma was above 10 µM each time.

Regarding `Cc1ccc(NC(=O)c2ccc(CN3CCN(C)CC3)cc2)cc1Nc1nccc(-c2cccnc2)n1`, the GI50 in the assay on SW-620 colon is 24.3 µM; in the assay with SF-295 CNS, 17.8 µM; in the assay on MDA-MB-231 breast, 18.3 µM; in the assay on HL-60(TB) leukemia, 16 µM; in the assay on BT-549 breast, 16.6 µM; in the assay on SK-MEL-28 melanoma, 15.1 µM. Further, the GI50 was 21.5 µM with PC-3 prostate and 12.3 µM in the assay with SK-MEL-5 melanoma. Moreover, the TGI in the assay with SW-620 colon worked out at 54.7 µM; with SF-295 CNS it was 38.3 µM; in the assay on MDA-MB-231 breast, 46.2 µM; with HL-60(TB) leukemia, 35.9 µM; in the assay with BT-549 breast, 34.9 µM; in the assay on SK-MEL-28 melanoma it was 29.6 µM. Moreover, the TGI in the assay on PC-3 prostate stood at 71.6 µM; with SK-MEL-5 melanoma, 24.9 µM.

With `COc1ccc(N=Cc2c(O)ccc3c2oc2cc(Cl)c(O)c(Cl)c23)cc1`, the GI50 was 11.8 µM with SW-620 colon; 3.39 µM in the assay with SF-295 CNS; 14.7 µM in the assay on MDA-MB-231 breast; 13.2 µM in the assay with HL-60(TB) leukemia; 13.4 µM in the assay on BT-549 breast; 15.9 µM in the assay with SK-MEL-28 melanoma. Besides, the GI50 was 14.8 µM in the assay with PC-3 prostate and 10.5 µM in the assay with SK-MEL-5 melanoma. For the same molecule, the TGI in the assay on SW-620 colon was 25.9 µM; in the assay on SF-295 CNS, 17.8 µM; in the assay on MDA-MB-231 breast it was 48.4 µM; with HL-60(TB) leukemia, 42.7 µM; with BT-549 breast, above 100 µM; in the assay on SK-MEL-28 melanoma, 40.4 µM. The TGI in the assay on PC-3 prostate came out at 57.3 µM; with SK-MEL-5 melanoma, 27.7 µM.

With `CCOC(=O)c1ccccc1OC(=O)NNc1ccccc1`, the GI50 was 12.4 µM in the assay on SW-620 colon; 0.333 µM in the assay on SF-295 CNS; 10.5 µM in the assay on MDA-MB-231 breast; 0.365 µM with HL-60(TB) leukemia; 3.56 µM in the assay with BT-549 breast; above 59.6 µM in the assay with SK-MEL-28 melanoma. The GI50 was 7.91 µM in the assay on PC-3 prostate and 1.43 µM in the assay on SK-MEL-5 melanoma. The TGI is above 100 µM in the assay with SW-620 colon; above 37.4 µM in the assay with SF-295 CNS; above 100 µM with MDA-MB-231 breast; above 100 µM in the assay on BT-549 breast; above 100 µM in the assay with SK-MEL-28 melanoma; above 100 µM in the assay on PC-3 prostate. In the assay on SK-MEL-5 melanoma, the TGI was above 33.2 µM.

Take `CCOC(=O)[C@@H](C)C[C@H](Cc1ccccc1)NC(=O)c1nc([C@@H](C[C@H](C(C)C)N(C)C(=O)[C@@H](NC(=O)[C@H]2CCCCN2C)C(C)C)OC(C)=O)sc1CCOCc1ccccc1`: the GI50 in the assay with SW-620 colon is 0.064 µM; in the assay on SF-295 CNS, 0.0499 µM; in the assay with MDA-MB-231 breast, 0.175 µM; in the assay with HL-60(TB) leukemia, 0.0394 µM; in the assay with BT-549 breast it was 0.0792 µM; in the assay with SK-MEL-28 melanoma it was 0.54 µM. Also, the figures for the GI50 in the assay on PC-3 prostate and with SK-MEL-5 melanoma were 0.0521 µM and 0.05 µM, respectively. The TGI was above 6.6 µM with SW-620 colon; 1.36 µM in the assay on SF-295 CNS; 1.02 µM in the assay on MDA-MB-231 breast; 0.19 µM in the assay with HL-60(TB) leukemia; 0.918 µM with BT-549 breast; 2.72 µM with SK-MEL-28 melanoma. Moreover, the TGI with PC-3 prostate turned out to be 2.41 µM; in the assay with SK-MEL-5 melanoma it was 0.38 µM.

As to `C[C@]12CC[C@@H]3c4cc(OC(F)F)c(O)cc4CC[C@H]3[C@@H]1CC[C@@H]2OS(N)(=O)=O`, the GI50 with SW-620 colon is 0.417 µM; in the assay on SF-295 CNS it was 0.33 µM; with MDA-MB-231 breast, 2.68 µM; in the assay with HL-60(TB) leukemia, 0.313 µM; in the assay on BT-549 breast, 2.8 µM; in the assay with SK-MEL-28 melanoma, 10.5 µM. The GI50 in the assay on PC-3 prostate is 0.729 µM; in the assay on SK-MEL-5 melanoma, 0.634 µM. The TGI in the assay with SW-620 colon is above 100 µM; in the assay with SF-295 CNS, 3.02 µM; with MDA-MB-231 breast, 41.5 µM; with HL-60(TB) leukemia it was 2.8 µM; with BT-549 breast it was 45.3 µM; with SK-MEL-28 melanoma it was 78.2 µM. The TGI with PC-3 prostate was determined as 97.6 µM; in the assay with SK-MEL-5 melanoma, 13.3 µM.
